Results reported in patent publication US20020082262A1, “Substituted bicyclic compounds for treating multidrug resistance” (priority 2000, published 2002).

tested on: NIH-MDR1-G185 cells; assay: Fluorescent Substrate Accumulation Assay (BODIPY-FL Taxol accumulation); assay type: cell-based; details: MDR modulator 10 micromolar, BODIPY-FL Taxol 500 nM, 40 min at 37° C.; fluorescence in NIH-MDR1-G185 cells in presence / absence of modulator
Experimental: Fluorescent Substrate Accumulation Assay NIH-MDR1-G185 cells (obtained from M. Gottesman, NIH) were harvested and resuspended in RPMI-1640 containing L-glutamine, 10% Cosmic Calf Serum and penicillin-streptomycin. Cell suspension aliquots of 175 microliters (1×10^5 cells) were added to individual wells of a 96 well microtiter plate and preincubated for 15 min at 37° C. with 20 microliters MDR modulator diluted in cell culture media to give a final concentration of 10 micromolar. Control wells received no modulating agent. BODIPY-FL Taxol (Molecular Probes, Eugene, Oreg.) was added to each well in 10 microliter aliquots to give a final concentration of 500 nM and cells were incubated for 40 min at 37° C. Cells were centrifuged at 100×g for 5 min at 4° C. and the cell pellet washed with 200 microliters cold PBS to remove fluorescent medium from wells. Cells were centrifuged once more, media removed, and cells resuspended in 200 microliters cold PBS. Fluorescence accumulation was measured in a fluorescence plate reader fitted with an excitation filter of 485 nm and an emission filter of 538 nm. BODIPY-FL taxol accumulation in the cells was calculated as follows: Accumulation Index=(fluorescence in NIH-MDR1-G185 cells in the presence of modulator)/(fluorescence in NIH-MDR1-G185 cells in absence of modulator)

| Compound | Accumulation Index |
| --- | --- |
| 1-[5-Phenyl-2-(3-phenyl-propyl)-pentanoic acid {4-[2-hydroxy-3-(quinolin-5-yloxy)-propyl]-piperazin-4-yl}-amide]piperidine [Example 10] | 8 |
| O=C(C(CCCc1ccccc1)CCCc1ccccc1)N1CCN(C2CCN(C[C@@H](O)COc3cccc4ncccc34)CC2)CC1 [Example7, 4-[5-phenyl-2-(3-phenyl-propyl)-pentanoic acid {1-[2-hydroxy-3-(quinolin-5-yloxy)-propyl]-piperazin-4-yl}-amide]piperidine] | 9 |
| O=C(C(CCCc1ccccc1)CCCc1ccccc1)N1CCC(NC2CCN(C[C@@H](O)COc3cccc4ncccc34)CC2)CC1 [Example 15] | 6 |
| O=C(CN1CCN(C[C@@H](O)COc2cccc3ncccc23)CC1)NC[C@H]1CC[C@H](C(=O)NC(CCCc2ccccc2)CCCc2ccccc2)CC1 [Example 22, N-{1-[2-(R)-hydroxy-3-(quinolin-5-yloxy)-propyl]-piperazine-4-acetyl}-trans-4-aminomethyl-1-cyclohexanecarboxylic acid [4-phenyl-1-(3-phenyl-propyl)-butyl]-amide] | 7 |
| O=C(CN1CCN(C[C@@H](O)COc2cccc3ncccc23)CC1)N[C@@H](Cc1cccnc1)C(=O)N1CCC(C(=O)NC(CCCc2ccccc2)CCCc2ccccc2)CC1 [Example 27, 1-(N-{1-[2-(R)-hydroxy-3-(quinolin-5-yloxy)-propyl]-piperazine-4-acetyl}-[3-(3-pyridyl)-alanyl])-piperidine-4-carboxylic acid [4-phenyl-1(3-phenyl-propyl)-butyl]-amide] | 8 |
